Among the test systems are EKVX NSCLC; KM12 colon; LOX IMVI melanoma; MCF7 breast; NCI-H226 lung; OVCAR-8 ovarian; SF-539 CNS; SW-620 colon; U251 CNS; UO-31 renal.
Holding throughout (assay): growth of human tumour cells (NCI), 48 h

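Test compounds were applied to cells in 96-well plates for 48 hours at 5 doses. Definition used: TGI = concentration required for complete inhibition of growth.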 Some results are limits rather than exact numbers.

For the compound `O=c1[nH]cnc2c1ncn2C1SC(CO)C(O)C1O` (stereo not given), the TGI in the assay with EKVX NSCLC, in the assay with KM12 colon, in the assay with LOX IMVI melanoma, in the assay on MCF7 breast, in the assay on NCI-H226 lung and in the assay with OVCAR-8 ovarian was above 100 µM in each case. Also, the TGI in the assay with SF-539 CNS, in the assay on SW-620 colon, in the assay with U251 CNS and in the assay with UO-31 renal was above 100 µM throughout.

In the case of `Nc1ccc(-c2nc3ccccc3s2)cc1I`, the TGI in the assay on EKVX NSCLC, in the assay with KM12 colon, in the assay with LOX IMVI melanoma, in the assay with MCF7 breast, in the assay with NCI-H226 lung and in the assay with OVCAR-8 ovarian was above 100 µM each time. Moreover, the TGI is above 100 µM in the assay with SF-539 CNS, above 100 µM in the assay with SW-620 colon, above 88.5 µM in the assay on U251 CNS and above 100 µM in the assay on UO-31 renal.

In the case of `O=C1NCC2(CCNCC2)N1`, the TGI with EKVX NSCLC, in the assay on KM12 colon, with LOX IMVI melanoma, in the assay with MCF7 breast, with NCI-H226 lung and in the assay on OVCAR-8 ovarian was above 100 µM throughout. Moreover, the TGI in the assay on SF-539 CNS, in the assay on SW-620 colon, in the assay with U251 CNS and in the assay with UO-31 renal was above 100 µM in each case.

On to `Cc1cn(C2CC(N=[N+]=[N-])C(CO)O2)c(=O)n(CCCCO)c1=O` (stereo not given), for which the TGI in the assay with EKVX NSCLC, in the assay with KM12 colon, in the assay with LOX IMVI melanoma, in the assay on MCF7 breast, with NCI-H226 lung and in the assay on OVCAR-8 ovarian was above 100 µM each time. The TGI in the assay with SF-539 CNS, in the assay on SW-620 colon, with U251 CNS and in the assay with UO-31 renal was above 100 µM each time.

Take `COC(=O)c1cn(CCCCO)nn1`: the TGI in the assay with EKVX NSCLC, in the assay on KM12 colon, in the assay with LOX IMVI melanoma, with MCF7 breast, in the assay with NCI-H226 lung and in the assay on OVCAR-8 ovarian was above 100 µM in each case. In addition, the TGI in the assay on SF-539 CNS, in the assay on SW-620 colon, with U251 CNS and in the assay with UO-31 renal was above 100 µM in each case.

Regarding `COC(=O)c1c2c(cc3c1CC1(C3)Cc3ccc4c(c3C1=O)CCC4)CCC2` (stereo not given), the TGI is above 100 µM with EKVX NSCLC; above 100 µM in the assay with KM12 colon; above 58.1 µM in the assay on LOX IMVI melanoma; above 66.7 µM with MCF7 breast; above 30 µM in the assay on NCI-H226 lung; above 82 µM with OVCAR-8 ovarian. The TGI in the assay on SF-539 CNS was 9.36 µM; in the assay with SW-620 colon, above 100 µM; with U251 CNS it was above 94.3 µM; with UO-31 renal, above 44.6 µM.

As for `CCC(C)C(NC(=O)c1c2ccccc2nc2ccccc12)C(=O)O` (stereo not given), the TGI with EKVX NSCLC, with KM12 colon, with LOX IMVI melanoma, in the assay with MCF7 breast, in the assay with NCI-H226 lung and with OVCAR-8 ovarian was above 100 µM throughout. Also, the TGI in the assay with SF-539 CNS, in the assay on SW-620 colon, in the assay on U251 CNS and with UO-31 renal was above 100 µM throughout.

In the case of `NS(=O)(=O)c1ccc(N=Nc2nc3[nH]cnc(=S)c3[nH]2)cc1`, the TGI was above 100 µM with EKVX NSCLC; above 100 µM with KM12 colon; 15.4 µM in the assay on LOX IMVI melanoma; above 100 µM with MCF7 breast; above 76.5 µM in the assay with NCI-H226 lung; above 100 µM in the assay with OVCAR-8 ovarian. The TGI is 34.4 µM in the assay with SF-539 CNS, above 100 µM with SW-620 colon, above 100 µM with U251 CNS and above 43.8 µM in the assay on UO-31 renal.

In the case of `CCCCC1=CC1(C#N)[N+](=O)[O-]` (stereo not given), the TGI in the assay with EKVX NSCLC, in the assay on KM12 colon, with LOX IMVI melanoma, in the assay on MCF7 breast, in the assay with NCI-H226 lung and in the assay on OVCAR-8 ovarian was above 100 µM each time. The TGI in the assay on SF-539 CNS, with SW-620 colon, in the assay with U251 CNS and in the assay with UO-31 renal was above 100 µM each time.

Regarding `O=C1CSC(c2ccccc2[N+](=O)[O-])N1c1ccc(-n2c(-c3ccccc3)nc3ccccc3c2=O)cc1` (stereo not given), the TGI with EKVX NSCLC is above 100 µM; with KM12 colon it was above 100 µM; in the assay on LOX IMVI melanoma, above 100 µM; in the assay on MCF7 breast, above 100 µM; in the assay with NCI-H226 lung it was 89.2 µM; in the assay with OVCAR-8 ovarian it was above 100 µM. The TGI in the assay with SF-539 CNS is above 100 µM; with SW-620 colon, above 100 µM; in the assay with U251 CNS it was 32.7 µM; in the assay with UO-31 renal it was above 100 µM.

As to `CCN(CC)CCOCC1CCCN2CCCCC12` (stereo not given), the TGI in the assay on EKVX NSCLC, with KM12 colon, with LOX IMVI melanoma, in the assay with MCF7 breast, in the assay with NCI-H226 lung and with OVCAR-8 ovarian was above 100 µM throughout. Also, the TGI with SF-539 CNS, with SW-620 colon, in the assay on U251 CNS and with UO-31 renal was above 100 µM throughout.

On to `Oc1c2c(c3c4c1N=CC=4CCN=3)C1(C=C(Br)C(O)C(Br)=C1)CCN2` (stereo not given), for which the TGI with EKVX NSCLC was determined as 4.94 µM; in the assay on KM12 colon it was 6.16 µM; with LOX IMVI melanoma it was 3.09 µM; with MCF7 breast, 2.73 µM; in the assay with NCI-H226 lung, 9 µM; in the assay with OVCAR-8 ovarian, 2.91 µM. Moreover, the TGI in the assay on SF-539 CNS amounted to 4.17 µM; in the assay with SW-620 colon it was 4.19 µM; with U251 CNS it was 5.44 µM; in the assay on UO-31 renal, 28 µM.

With `CCCCCCCCCCCCCCCCNc1ccc2c(c1)OCCOCCOCCOCCO2`, the TGI in the assay with EKVX NSCLC came out at 14.4 µM; in the assay with KM12 colon, 4.84 µM; with LOX IMVI melanoma it was 5.42 µM; in the assay on MCF7 breast it was 13.2 µM; in the assay with NCI-H226 lung, 7.07 µM; in the assay with OVCAR-8 ovarian, 10.8 µM. Also, the TGI stood at 9.43 µM in the assay with SF-539 CNS, 13.3 µM in the assay on SW-620 colon, 10.4 µM in the assay with U251 CNS and 8.88 µM in the assay with UO-31 renal.

Turning to `Cc1ccc(C(=O)c2[nH]c(Nc3ccc(Cl)cc3)c(C(=S)Nc3ccccc3)c2N)cc1`, the TGI in the assay on EKVX NSCLC amounted to 19 µM; in the assay on KM12 colon, 18.8 µM; with LOX IMVI melanoma it was 14.3 µM; in the assay with MCF7 breast, 33.6 µM; in the assay on NCI-H226 lung, 43.4 µM; in the assay with OVCAR-8 ovarian, 18.1 µM. Moreover, the TGI with SF-539 CNS is 17.7 µM; in the assay with SW-620 colon, 37.7 µM; in the assay on U251 CNS, 9.02 µM; with UO-31 renal, 23 µM.

As for `Nc1nc(Sc2ccc([N+](=O)[O-])cn2)c2[nH]cnc2n1`, the TGI was 50.2 µM in the assay with EKVX NSCLC; above 38.1 µM in the assay with KM12 colon; 17.1 µM with LOX IMVI melanoma; above 100 µM in the assay on MCF7 breast; 57.3 µM in the assay on NCI-H226 lung; above 80.4 µM with OVCAR-8 ovarian. Further, the TGI with SF-539 CNS is above 100 µM; with SW-620 colon, above 100 µM; in the assay with U251 CNS it was above 64.3 µM; in the assay with UO-31 renal, 24.7 µM.

The values are drawn from PubChem BioAssay (NCI).
